Values joined by “and” are separate entries in the source; they are usually repeats but may differ in a detail not shown here. Equal entries are not always repeated.
Columns and labels:
[1] = test system: ischaemic skeletal muscle; assay: pO2 measurement in ischaemic skeletal muscle (m. gastrocnemius, femoral artery ligated), Pt-needle electrodes; assay type: in vivo, Cat
Protocol: (§1) Cats of either sex were anaesthetized with urethane/chloralose (120/60 mg/kg i.p. In the course of the experiments, pentobarbital was injected intravenously (V. antebrachii ceph.) via a plastic tube. The intraduodenal (i.d.) application of compound weas conducted by means of a plastic catheter, which was inserted into the duodenum.
The reference electrode, and Ag/AgCl system was sputtered on the glass mantle of the cathode, or it was a separate electrode. The cathode was coated with a polystyrol and a collodium membrane. A constant voltage supply provided a polarizing voltage between 600 and 800 mV. The reducing current was measured by a nano-ampere amplifying meter. The- cathode was inserted in the tissue by means of a motor-driven micromanipulator.
A p02― electrode was inserted in the muscle tissue (m. gastrocnemius) of both hindlegs of an anaesthetized cat. After recording the p02 of the normal perfused muscle, the blood flow to one measuring site was restricted by ligating the femoral artery. […] After having reached a constant level of p02, the vehicle was given, followed by the test substance.
The mean value and the standard deviation were calculated, in order to check the significance of the effect.

skeletal muscle = assay: pO2 measurement in the control (non-ligated) hind limb muscle; assay type: in vivo, Cat; settings: individual cats
Protocol: A p02― electrode was inserted in the muscle tissue (m. gastrocnemius) of both hindlegs of an anaesthetized cat. After recording the p02 of the normal perfused muscle, the blood flow to one measuring site was restricted by ligating the femoral artery. […] The values were constant after 30 to 60 min. After having reached a constant level of p02, the vehicle was given, followed by the test substance.

[2] = test system: ischaemic skeletal muscle; assay: Skeletal muscle contractility with restricted femoral blood flow; assay type: in vivo, Cat
Protocol: as §1
Cats of either sex were anaesthetized as for p02 measurement. After dissection of the skin of the calf muscles, the sciatic nerve was cut about 3 cm proximal to the knee. The tendon of the calf muscles was cut and connected with an isometric force transducer (SWEMA, SG 3). In order to maintain constant differences and a resting tension of 100 p, the hind limb was fixed at the tibia by means of a clamp. Direct stimulation of the muscles consisted of square wave pulses of a 4 msec duration at a frequency of 2 Hz and at a voltage of 50 V. In order to keep the muscles wet and at a normal temperature, the muscles were continuously superfused by means of a NaCI-solution (0.9%, 38°C). Femoral blood flow was restricted by a graded occlusion of the artery leading to a reduction of contractility by ca. 30%. After having reached a constant level of the contraction force, the vehicle (NaCI and Methocel®, respectively) was injected, followed by the test substance.

[3] = Blood pressure changes during the contractility experiment; assay type: in vivo, Cat
[4] = Acute oral toxicity (LD50); settings: mouse, in vivo; mice, per oral
[5] = Solubility in aqueous media; assay type: physicochemical

For `CCCCn1c(=O)c2c(ncn2CC(C)=O)n(CCCC)c1=O` [Compound A, 1,3-di-n-butyl-7-(2-oxopropyl)xanthine], the “effect of Compound A 125 μg/kg i.v. ΔpO2 (Torr)” value ([1]; hind limb art. lig., 125 μg/kg i.v., individual cats) was 5.6 (p≤0.01) Torr and 6.2 (p≤0.01) Torr and 7.3 (p≤0.01) Torr and 5.2 (p≤0.01) Torr and 27.1 (p≤0.01) Torr and 11.2 (p≤0.01) Torr, the “pO2 (mmHg) (increase)” value ([1]; i.d., 50 µg/kg) was 4 (50 µg) mmHg and the “pO2 (mmHg) (increase)” value ([1]; i.v., 125 µg/kg) was 10 (125 µg) mmHg. For the same compound, the “effect of Compound A 125 μg/kg i.v. ΔpO2 (Torr)” value (skeletal muscle; 125 μg/kg i.v.) was 19.3 (p≤0.01) Torr and 3.4 (p≤0.01) Torr and 13.2 (p≤0.01) Torr and 3.8 (p≤0.01) Torr and 3.5 (p≤0.01) Torr, the “t (min), time interval to reach initial values, muscle contract.” value (“t (min), time interval … muscle contract.” for short) ([2]; 50 µg/kg i.v.) was over 60 min and the “t (min), time interval … muscle contract.” value ([2]; 125 µg/kg i.v.) was over 60 min. The “t (min), time interval … muscle contract.” value ([2]; 313 µg/kg i.v., n = 1) was over 60 min, the Δ muscle contract. ([2]; 313 µg/kg i.v., n = 1) was “+25.0 n = 1 percentage of initial values” and the “contractility (% initial value)” value ([2]; i.d., 125 µg/kg) was 32 (125 µg) % initial value. For the same compound, the “contractility (% initial value)” value ([2]; i.v., 50 µg/kg) was 36 (50 µg) % initial value, the “t (min), time interval to reach initial values, initial phase BP decrease” value ([3]; 50 µg/kg i.v.) was 2 min and the “t (min), time interval to reach initial values, second phase BP increase” value ([3]; 50 µg/kg i.v.) was 33 min. For the same compound, the “t (min), time interval to reach initial values, initial phase BP decrease” value ([3]; 125 µg/kg i.v.) was 3 min, the “t (min), time interval to reach initial values, second phase BP increase” value ([3]; 125 µg/kg i.v.) was 32 min and the “Δ second phase BP increase X̄ ± S” value ([3]; 125 µg/kg i.v.) was “+10.8 ± 8.3 percentage of initial values”. The “t (min), time interval to reach initial values, initial phase BP decrease” value ([3]; 313 µg/kg i.v., n = 1) was 2 min, the “t (min), time interval to reach initial values, second phase BP increase” value ([3]; 313 µg/kg i.v., n = 1) was 6 min and the “Δ initial phase BP decrease” value ([3]; 313 µg/kg i.v., n = 1) was −25.0 n = 1 percentage of initial values. The “Δ second phase BP increase” value ([3]; 313 µg/kg i.v., n = 1) was “+15.0 n = 1 percentage of initial values”, the LD50 [4] was over 1000 mg/kg and the “solubility in aqueous media” value [5] was “only sparingly soluble”.
For `CC(=O)CCCCn1c(=O)c2c(ncn2C)n(C)c1=O` [Compound B, pentoxyphylline], the “effect of Compound B 5 mg/kg i.v. ΔpO2 (Torr)” value ([1]; hind limb art. lig., 5 mg/kg i.v., individual cats) was 1.3 (p≤0.01) Torr and 1.6 (p≤0.01) Torr and 4.9 (p≤0.01) Torr and 7.3 (p≤0.01) Torr, the “effect of Compound B in relation to Compound A (%)” value ([1]; hind limb art. lig., B 5 mg/kg i.v. vs A 125 μg/kg i.v., individual cats) was 22.9% and 26.6% and 0% (2×) and 17.9% and 65.6% and the “pO2 (mmHg) (increase)” value ([1]; i.d., 12.5 mg/kg) was 3 (12.5 mg) mmHg. For the same compound, the “pO2 (mmHg) (increase)” value ([1]; i.v., 5 mg/kg) was 2 (5 mg) mmHg, the “effect of Compound B in relation to Compound A (%)” value (skeletal muscle; B 5 mg/kg i.v. vs A 125 μg/kg i.v.) was 74.3% and 0% (3×) and 27% and the “contractility (% initial value)” value ([2]; i.d., 32 mg/kg) was 23 (32 mg) % initial value. For the same compound, the “contractility (% initial value)” value ([2]; i.v., 5 mg/kg) was 9 (5 mg) % initial value.
With `CCCCn1c(=O)c2c(ncn2CCC(C)=O)n(CCCC)c1=O` [Compound C, 1,3-di-butyl-7-(3-oxobutyl)xanthine, reference compound] the “pO2 (mmHg) (increase)” value ([1]; i.d., 32 mg/kg) was 6 (32 mg) mmHg and the “contractility (% initial value)” value ([2]; i.d., 12.5 mg/kg) was 22 (12.5 mg) % initial value.

Reference: EP0005015B1, “Use of a xanthine derivate in the manufacture of a medicament” (BEECHAM - WUELFING GmbH & Co. KG, priority 1978, dated 1979)
